# Legend:
# C. krusei (ATCC 6258) = assay: Anticandidal broth microdilution (EUCAST EDef 7.1), resazurin fluorometric readout; type: cell-based; conditions: Pichia kudriavzevii, ATCC6258; ATCC 6258, RPMI pH 7, 24 h incubation
# Description: (§1) Synthesized compounds (5a-5ad) were evaluated for anticandidal activity against C. albicans (ATCC 24433), C. krusei (ATCC 6258), C. parapsilosis (ATCC 22019) and C. [NT] 90030). MIC50 values were evaluated via fluorometric measurements, using resazurin solution [56, 57]. […] [NT] 90030). MIC readings were carried out twice for each chemical agent. The yeasts were maintained in RPMI after overnight incubation at 37 °C. The inocula of test microorganisms adjusted to match the turbidity of a MacFarland 0.5 standard tube as determined with a spectrophotometer and the final inoculum size was 0.5-2.5 × 10^5 cfu/mL for antifungal assay. Testing was carried out in RPMI at pH = 7 and the two-fold serial dilutions technique was applied. The last well on the microplates containing only inoculated broth was kept as controls and the last well with no growth of microorganism was recorded to represent the MIC50 expressed in μg/mL. For the antifungal assays, the compounds were dissolved in DMSO. […] The completed plates were incubated for 24 h. At the end of the incubation, resazurin (20 μg/mL) was added into each well to control whether the growth in wells. Then, plates were allowed to incubate for 2 h. MIC50 values were determined using a microplate reader at […].
# C. albicans (ATCC 24433) = assay: as above; type: cell-based; conditions: Candida albicans, ATCC24433; ATCC 24433, RPMI pH 7, 24 h incubation
# Description: as §1
# [1] = tested on: C. parapsilosis (ATCC 22019); assay: as above; type: cell-based; conditions: Lodderomyces parapsilosis, ATCC22019; ATCC 22019, RPMI pH 7, 24 h incubation; read-out: MIC50 C. parapsilopsis
# Description: as §1
# C. glabrata (ATCC 90030) = assay: as above; type: cell-based; conditions: Nakaseomyces glabratus, ATCC90030; ATCC 90030, RPMI pH 7, 24 h incubation
# Description: as §1
# [2] = tested on: NIH/3T3 mouse embryonic fibroblast cell line (ATCC CRL1658); assay: MTT cytotoxicity assay; type: cell-based; conditions: NIH3T3, tested 800 to 0.78 µg/mL, read-out: IC50 on NIH/3T3 mouse embryonic fibroblast cell lines
# Description: Toxicity is a key cause of failure at all steps of the new drug development process. The most part of safety-related problems occur at preclinical phases to predict preclinical safety liabilities earlier in the new drug development process. This approach allows to design and/or selection of better drug candidates that have more potentials to be marketed drugs. […] Cytotoxicities of selected compounds (5m, 5o, 5r, 5w, 5y, 5ab, and 5ad), displaying strong anticandidal activity and good predicted pharmacokinetics, were determined against NIH/3T3 mouse embryonic fibroblast cell lines (ATCC CRL1658).
# Cytotoxicity was tested using the NIH/3T3 mouse embryonic fibroblast cell line (ATCC® CRL-1658™, London, UK). NIH/3T3 cells were incubated according to the supplier’s recommendations and they were seeded at 1 × 10^4 cells into each well of 96-well plates. MTT assay was performed as previously described. The compounds were tested in a concentration range of 800 µg/mL and 0.78 µg/mL concentrations. Percent inhibition was calculated for each concentration according to the formula below, and IC50 values were determined by plotting a concentration–response curve of inhibition percent versus compound concentrations tested.
# [3] = tested on: ergosterol biosynthesis in C. albicans (ATCC 24433); assay: Quantification of ergosterol level by LC-MS-MS; type: cell-based; conditions: 0.78, 1.56 and 3.12 µg/mL, 16 h, negative control = 100%
# Description: The most of therapies, planned to treat fungal infections, target in the ergosterol biosynthesis pathway or its end product, ergosterol, a membrane sterol that is unique to fungi. It is the main sterol, and thus is essential for growth and normal membrane function of fungal cell. Besides serving as a bioregulator of membrane fluidity, asymmetry and integrity, it contributes to proper function of membrane-bound enzymes. […] Total intracellular sterols were extracted as reported by Breivik and Owades. […] Ergosterol standard (Product No. 45480, Sigma-Aldrich, Darmstadt, Germany) was used for quantification of ergosterol in both inhibitor-free (negative control) and inhibitor including samples. Ergosterol quantity in negative control samples was regarded as 100%. All concentrations were analyzed in quadruplicate, and the results were expressed as mean ± standard deviation (SD) (Figure 2).
# Total intracellular sterols were extracted as reported by Breivik and Owades with slight modifications. […] The cultures were incubated for 16 h with shaking at 35 °C. […] Ergosterol quantity in negative control samples was regarded as 100%. All concentrations were analyzed in quadruplicate, and the results were expressed as mean ± standard deviation (SD).
# Candida species = assay: Anticandidal broth microdilution, results summarised over all strains; type: cell-based; conditions: summary over all four Candida strains; for MIC50: Candida, read-out: MIC50 against Candida species
# Description: as §1
MIC50 (C. krusei (ATCC 6258)) [µg/mL],MIC50 (C. albicans (ATCC 24433)) [µg/mL],MIC50 [1] [µg/mL],MIC50 (C. glabrata (ATCC 90030)) [µg/mL],melting point [°C],MIC50 (Candida species) [µg/mL],Structure (SMILES),IC50 [2] [µg/mL],level of ergosterol in C. albicans (in words) [3],anticandidal activity against Candida strains (in words) (Candida species)
1.56,0.78,0.78,0.78,234.2,0.78 to 1.56,"CCn1c(SCC(=O)c2ccc(F)cc2F)nnc1-c1ccc(-c2nc3ccc(F)cc3[nH]2)cc1 [Compound 5ad, 1-(2,4-Difluorophenyl)-2-((4-ethyl-5-(4-(6-fluoro-1H-benzimidazol-2-yl)phenyl)-4H-1,2,4-triazol-3-yl)thio)ethan-1-one]",120 ± 4.39,significantly decreased the level of ergosterol at all tested concentrations,–
1.56,0.78,0.78,1.56,251,0.78 to 1.56,"CCn1c(SCC(=O)c2ccc(F)cc2)nnc1-c1ccc(-c2nc3ccc(F)cc3[nH]2)cc1 [Compound 5ab, 2-((4-Ethyl-5-(4-(6-fluoro-1H-benzimidazol-2-yl)phenyl)-4H-1,2,4-triazol-3-yl)thio)-1-(4-fluorophenyl)ethan-1-one]",43.1 ± 2.88,–,–
1.56,0.78,0.78,1.56,264.9,0.78 to 1.56,"Cn1c(SCC(=O)c2ccc(F)cc2F)nnc1-c1ccc(-c2nc3ccc(Cl)cc3[nH]2)cc1 [Compound 5o, 2-((5-(4-(6-Chloro-1H-benzimidazol-2-yl)phenyl)-4-methyl-4H-1,2,4-triazol-3-yl)thio)-1-(2,4-difluorophenyl)ethan-1-one]",1.63 ± 0.02,–,–
50,12.5,25,12.5,248.5,–,"CCn1c(SCC(=O)c2ccccc2)nnc1-c1ccc(-c2nc3ccc(Cl)cc3[nH]2)cc1 [Compound 5p, 2-((5-(4-(6-Chloro-1H-benzimidazol-2-yl)phenyl)-4-ethyl-4H-1,2,4-triazol-3-yl)thio)-1-phenylethan-1-one]",–,–,did not show strong activity
1.56,1.56,1.56,1.56,223.3,1.56 to 3.12,"CCn1c(SCC(=O)c2ccc(Cl)cc2Cl)nnc1-c1ccc(-c2nc3ccc(F)cc3[nH]2)cc1 [Compound 5ac, 1-(2,4-Dichlorophenyl)-2-((4-ethyl-5-(4-(6-fluoro-1H-benzimidazol-2-yl)phenyl)-4H-1,2,4-triazol-3-yl)thio)ethan-1-one]",–,–,–
0.78,0.78,1.56,1.56,263.2,0.78 to 1.56,"Cn1c(SCC(=O)c2ccc(F)cc2F)nnc1-c1ccc(-c2nc3ccc(F)cc3[nH]2)cc1 [Compound 5y, 1-(2,4-Difluorophenyl)-2-((5-(4-(6-fluoro-1H-benzimidazol-2-yl)phenyl)-4-methyl-4H-1,2,4-triazol-3-yl)thio)ethan-1-one]",11.1 ± 0.57,–,–
0.78,0.78,0.78,1.56,250.6,0.78 to 1.56,"CCn1c(SCC(=O)c2ccc(F)cc2F)nnc1-c1ccc(-c2nc3ccc(Cl)cc3[nH]2)cc1 [Compound 5t, 2-((5-(4-(6-Chloro-1H-benzimidazol-2-yl)phenyl)-4-ethyl-4H-1,2,4-triazol-3-yl)thio)-1-(2,4-difluorophenyl)ethan-1-one]",–,–,–
1.56,0.78,1.56,0.78,265.5,0.78 to 1.56,"CCn1c(SCC(=O)c2ccc(F)cc2)nnc1-c1ccc(-c2nc3ccc(Cl)cc3[nH]2)cc1 [Compound 5r, 2-((5-(4-(6-Chloro-1H-benzimidazol-2-yl)phenyl)-4-ethyl-4H-1,2,4-triazol-3-yl)thio)-1-(4-fluorophenyl)ethan-1-one]",13.9 ± 0.69,–,–
0.78,0.78,0.78,1.56,274.5,0.78 to 1.56,"Cn1c(SCC(=O)c2ccc(F)cc2)nnc1-c1ccc(-c2nc3ccc(Cl)cc3[nH]2)cc1 [Compound 5m, 2-((5-(4-(6-Chloro-1H-benzimidazol-2-yl)phenyl)-4-methyl-4H-1,2,4-triazol-3-yl)thio)-1-(4-fluorophenyl)ethan-1-one]",17.4 ± 0.89,–,–
6.25,6.25,12.5,12.5,241.4,–,"CCn1c(SCC(=O)c2ccc(Cl)cc2)nnc1-c1ccc(-c2nc3ccc(F)cc3[nH]2)cc1 [Compound 5aa, 1-(4-Chlorophenyl)-2-((4-ethyl-5-(4-(6-fluoro-1H-benzimidazol-2-yl)phenyl)-4H-1,2,4-triazol-3-yl)thio)ethan-1-one]",–,–,did not show strong activity

# Reference: publication PMC6154534, “New Benzimidazole-1,2,4-Triazole Hybrid Compounds: Synthesis, Anticandidal Activity and Cytotoxicity Evaluation” (Molecules : A Journal of Synthetic Chemistry and Natural …, 2017)
